Like-named read-outs stand apart in the source and are kept apart here.
Tests used:
Format in all cases: cell-based
[1] = test system: human embryonic lung fibroblast IMR-90; experiment: Anti-fibrosis activity test: inhibition of proliferation of human embryonic lung fibroblast IMR-90 (CCK-8)
Procedure, shortened: (§1)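 Proliferation read by CCK-8 (2 h, A450) after 48 h compound treatment of cells plated at 2×10^4 cells/mL and allowed 24 h attachment, triplicate per concentration. Inhibition rate derived from absorbance relative to untreated blank, with IC50 fitted; pirfenidone as positive control.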

NF-κB = experiment: Immunological activity test: inhibition of NF-κB activity; settings: initial concentration of 30 μM; a/b isomers given as first/second symbol; read-out: IC50 (μM), inhibitory activity against NF-κB
Procedure, shortened: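 IC50 values were derived after initial screening of compounds at 30 μM for NF-κB inhibitory activity, with parthenolide serving as the positive control.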

[2] = test system: mouse macrophages (RAW264.7); experiment: Lipopolysaccharide-induced NO secretion in macrophages (Griess); settings: RAW264.7, LPS 1 μg/ml, a/b isomers given as first/second symbol, read-out: IC50 (μM), inhibition of lipopolysaccharide-induced NO secretion in macrophages
Procedure, shortened: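 Percent inhibition of NO release was measured by Griess absorbance at 548 nm in supernatants. Cells were mouse RAW264.7 macrophages in 10% FBS DMEM, treated with graded compound concentrations and activated by LPS (1 μg/ml) for 24 h.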

BHK-21 cells = experiment: Anti-fibrosis activity test: inhibition of BHK-21 cell proliferation (CCK-8); settings: Mesocricetus auratus, BHK-21, 48 h
Procedure, shortened: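 Proliferation inhibition was read as CCK-8 absorbance at 450 nm (2-hour development) relative to untreated blank, with IC50 fitted from the curve. Before that, adhered cells (2×10^4 cells/mL, 24 hours) had 48 hours' treatment at several concentrations, in triplicate, at 37° C/5% CO2; pirfenidone was the reference.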

[3] = test system: human dermal fibroblasts CCC-ESF-1; experiment: Anti-fibrosis activity test: inhibition of proliferation of human dermal fibroblasts CCC-ESF-1 (CCK-8); settings: Fibroblast
Procedure, shortened: as §1

[4] = test system: human lung fibroblasts HFL1; experiment: Anti-fibrosis activity test: inhibition of proliferation of human lung fibroblasts HFL1 (CCK-8); settings: Homo sapiens, HFL1, 48 h
Procedure, shortened: as §1

[5] = test system: human hepatic stellate cells LX-2; experiment: Anti-fibrosis activity test: inhibition of proliferation of human hepatic stellate cells LX-2 (CCK-8); settings: Homo sapiens, 48 h
Procedure, shortened: as §1

[6] = test system: cardiac fibroblast RAT-iCell-C002; experiment: Anti-fibrosis activity test: inhibition of proliferation of cardiac fibroblast RAT-iCell-C002 (CCK-8); settings: Cardiac fibroblast, 48 h
Procedure, shortened: as §1

[7] = test system: human fibrosarcoma cells HT-1080; experiment: Anti-fibrosis activity test: inhibition of proliferation of human fibrosarcoma cells HT-1080 (CCK-8); settings: Homo sapiens, HT-1080, 48 h
Procedure, shortened: as §1

[8] = human embryonic lung fibroblast IMR-90, CCK-8, 48 hours
[9] = CCK-8, 48 hours after administration
[10] = human dermal fibroblasts CCC-ESF-1, CCK-8, 48 hours
[11] = human lung fibroblasts HFL1, CCK-8, 48 hours
[12] = human hepatic stellate cells LX-2, CCK-8, 48 hours
[13] = cardiac fibroblast RAT-iCell-C002, CCK-8, 48 hours
[14] = human fibrosarcoma cells HT-1080, CCK-8, 48 hours

Row | SMILES | IC50 ([1]; Homo sapiens, IMR-90 cells, 48 h, CCK-8) [mM] | IC50 (NF-κB) [µM] | IC50 ([2]; Mus musculus, RAW264.7, 24 h) [µM] | IC50 (BHK-21 cells; 48 h, CCK-8) [mM] | IC50 ([3]; Homo sapiens, CCC-ESF-1 cells, 48 h, CCK-8) [mM] | IC50 ([4]; HFL1 cells, 48 h, CCK-8) [mM] | IC50 ([5]; LX-2, 48 h, LX-2 cells, CCK-8) [mM] | IC50 ([6]; RAT-iCell-C002 cells, CCK-8) [mM] | IC50 ([7]; HT-1080 cells, 48 h, CCK-8) [mM] | IC50 [1, 8] [mM] | IC50 (BHK-21 cells; [9]) [mM] | IC50 [3, 10] [mM] | IC50 [4, 11] [mM] | IC50 [5, 12] [mM] | IC50 [6, 13] [mM] | IC50 [7, 14] [mM] | IC50 ([2]; 24 hours) [µM]
1 | Cc1cccc2[nH]c3c(c(=O)c12)C(=O)n1cccc1-3 [Compound 678a, 8-Methyl-9H-pyrrolizino[1,2-b]quinoline-9,10(4H)-dione] | 0.05 to 5 | 1 to 10 | 1 to 10 | 0.05 to 5 | 0.05 to 5 | 0.05 to 5 | 0.05 to 5 | 0.05 to 5 | 0.05 to 5 | – | – | – | – | – | – | – | –
2 | CC(C)=CCn1c2c(c(=O)c3cc(F)ccc31)C(=O)n1cccc1-2 [Compound 112a, 7-Fluoro-4-(3-methylbut-2-en-1-yl)-9H-pyrrolizino[1,2-b]quinoline-9,10(4H)-dione] | – | 10 to 50 | 1 to 10 | – | – | – | – | – | – | 0.05 to 5 | 5 to 20 | 0.05 to 5 | 0.05 to 5 | 0.05 to 5 | 0.05 to 5 | 0.05 to 5 | –
3 | O=C(COc1c2c(nc3ccccc13)-c1cccn1C2=O)c1ccc(C(F)(F)F)cc1 [Compound 91b, 9-(2-oxo-2-(4-(trifluoromethyl)phenyl)ethoxy)-10H-pyrrolizino[1,2-b]quinolin-10-one] | – | 1 to 10 | 0.1 to 1 | – | – | – | – | – | – | 0.05 to 5 | 0.05 to 5 | 0.05 to 5 | < 0.05 | 5 to 20 | 0.05 to 5 | 0.05 to 5 | –
4 | O=C1c2c(nc3cc(C(F)(F)F)ccc3c2O)-c2cccn21 [Compound 536b, 9-hydroxy-6-(trifluoromethyl)-10H-pyrrolizino[1,2-b]quinolin-10-one] | – | 1 to 10 | 1 to 10 | – | – | – | – | – | – | 0.05 to 5 | 0.05 to 5 | 0.05 to 5 | 0.05 to 5 | 0.05 to 5 | 0.05 to 5 | 0.05 to 5 | –
5 | N#Cc1cccc2c1c(=O)c1c(n2Cc2ccc(F)cc2)-c2cccn2C1=O [Compound 462a, 4-(4-Fluorobenzyl)-9,10-dioxo-4,10-dihydro-9H-pyrrolizino[1,2-b]quinoline-8-carbonitrile] | – | 0.1 to 1 | 1 to 10 | – | – | – | – | – | – | 0.05 to 5 | < 0.05 | 0.05 to 5 | 0.05 to 5 | 0.05 to 5 | 0.05 to 5 | 0.05 to 5 | –
6 | O=C1c2c(n(Cc3ccccc3Cl)c3ccccc3c2=O)-c2cccn21 [Compound 600a, 4-(2-Chlorobenzyl)-9H-pyrrolizino[1,2-b]quinoline-9,10(4H)-dione] | – | 0.1 to 1 | 0.1 to 1 | – | – | – | – | – | – | 0.05 to 5 | 0.05 to 5 | 0.05 to 5 | 0.05 to 5 | 0.05 to 5 | 0.05 to 5 | 0.05 to 5 | –
7 | O=C1c2c(nc3ccccc3c2OCc2c(F)cccc2F)-c2cccn21 [Compound 615b, 9-((2,6-difluorobenzyl)oxy)-10H-pyrrolizino[1,2-b]quinolin-10-one] | – | 10 to 50 | 10 to 50 | – | – | – | – | – | – | 0.05 to 5 | 0.05 to 5 | 0.05 to 5 | 0.05 to 5 | 0.05 to 5 | 0.05 to 5 | 0.05 to 5 | –
8 | O=C1c2c(n(Cc3ccc(-c4ccccc4)cc3)c3ccccc3c2=O)-c2cccn21 [Compound 649a, 4-([1,1′-Biphenyl]-4-ylmethyl)-9H-pyrrolizino[1,2-b]quinoline-9,10(4H)-dione] | – | 0.1 to 1 | 10 to 50 | – | – | – | – | – | – | 0.05 to 5 | 0.05 to 5 | 0.05 to 5 | 0.05 to 5 | 0.05 to 5 | 0.05 to 5 | 0.05 to 5 | –
9 | N#Cc1ccc(Cn2c3c(c(=O)c4ccccc42)C(=O)n2cccc2-3)cc1 [Compound 590a, 4-((9,10-Dioxo-9H-pyrrolizino[1,2-b]quinolin-4(10H)-yl)methyl)benzonitrile] | – | 1 to 10 | 1 to 10 | – | – | – | – | – | – | 0.05 to 5 | 0.05 to 5 | 0.05 to 5 | 0.05 to 5 | 0.05 to 5 | 0.05 to 5 | 0.05 to 5 | –
10 | O=C1c2c(nc3ccccc3c2OCCO)-c2cccn21 [Compound 11b, 9-(2-hydroxyethoxy)-10H-pyrrolizino[1,2-b]quinolin-10-one] | – | 1 to 10 | 1 to 10 | – | – | – | – | – | – | 0.05 to 5 | 0.05 to 5 | 0.05 to 5 | 0.05 to 5 | 0.05 to 5 | 0.05 to 5 | 0.05 to 5 | –
11 | N#Cc1cccc2[nH]c3c(c(=O)c12)C(=O)n1cccc1-3 [Compound 476a, 9,10-Dioxo-4,10-dihydro-9H-pyrrolizino[1,2-b]quinoline-8-carbonitrile] | – | 10 to 50 | 1 to 10 | – | – | – | – | – | – | 0.05 to 5 | < 0.05 | 0.05 to 5 | 0.05 to 5 | 0.05 to 5 | 0.05 to 5 | 0.05 to 5 | –
12 | N#Cc1cccc2nc3c(c(O)c12)C(=O)n1cccc1-3 [Compound 476b, 9-hydroxy-10-oxo-10H-pyrrolizino[1,2-b]quinoline-8-carbonitrile] | – | 10 to 50 | 1 to 10 | – | – | – | – | – | – | 0.05 to 5 | 0.05 to 5 | 0.05 to 5 | 0.05 to 5 | 0.05 to 5 | 0.05 to 5 | 0.05 to 5 | –
13 | N#Cc1c(N2CCNCC2)ccc2c(OCc3ccc(F)cc3)c3c(nc12)-c1cccn1C3=O [Compound 486b, 9-((4-fluorobenzyl)oxy)-10-oxo-6-(piperazin-1-yl)-10H-pyrrolizino[1,2-b]quinoline-5-carbonitrile] | – | 1 to 10 | – | – | – | – | – | – | – | – | – | – | – | – | – | – | 1 to 10
14 | N#Cc1c(N2CCNCC2)ccc2c(=O)c3c(n(Cc4ccc(F)cc4)c12)-c1cccn1C3=O [Compound 486a, 4-(4-Fluorobenzyl)-9,10-dioxo-6-(piperazin-1-yl)-4,10-dihydro-9H-pyrrolizino[1,2-b]quinoline-5-carbonitrile] | – | 10 to 50 | – | – | – | – | – | – | – | – | – | – | – | – | – | – | 0.1 to 1
15 | N#Cc1ccc(COc2c3c(nc4ccc(C#N)cc24)-c2cccn2C3=O)cc1 [Compound 626b, 9-((4-cyanobenzyl)oxy)-10-oxo-10H-pyrrolizino[1,2-b]quinoline-7-carbonitrile] | – | 1 to 10 | – | – | – | – | – | – | – | 0.05 to 5 | 0.05 to 5 | < 0.05 | 0.05 to 5 | 0.05 to 5 | 0.05 to 5 | 0.05 to 5 | –
16 | N#Cc1ccc2c(c1)c(=O)c1c(n2Cc2ccc(C(F)(F)F)cc2)-c2cccn2C1=O [Compound 627a, 9,10-Dioxo-4-(4-(trifluoromethyl)benzyl)-4,10-dihydro-9H-pyrrolizino[1,2-b]quinoline-7-carbonitrile] | – | 1 to 10 | – | – | – | – | – | – | – | 0.05 to 5 | < 0.05 | 0.05 to 5 | 0.05 to 5 | 0.05 to 5 | 0.05 to 5 | 0.05 to 5 | –
17 | N#Cc1ccc2c(c1)c(=O)c1c(n2Cc2ccc(F)cc2)-c2cccn2C1=O [Compound 624a, 4-(4-Fluorobenzyl)-9,10-dioxo-4,10-dihydro-9H-pyrrolizino[1,2-b]quinoline-7-carbonitrile] | – | 0.1 to 1 | – | – | – | – | – | – | – | 0.05 to 5 | < 0.05 | 0.05 to 5 | < 0.05 | 5 to 20 | 0.05 to 5 | 0.05 to 5 | –
18 | O=C1c2c(n(-c3ccc(Cl)cc3)c3ccccc3c2=O)-c2cccn21 [Compound 34a, 4-(4-Chlorophenyl)-9H-pyrrolizino[1,2-b]quinoline-9,10(4H)-dione] | – | 0.1 to 1 | – | – | – | – | – | – | – | 0.05 to 5 | < 0.05 | 5 to 20 | 0.05 to 5 | 0.05 to 5 | 0.05 to 5 | 0.05 to 5 | –
19 | O=C1c2c(n(-c3ccc(Br)cc3)c3ccccc3c2=O)-c2cccn21 [Compound 64a, 4-(4-Bromophenyl)-9H-pyrrolizino[1,2-b]quinoline-9,10(4H)-dione] | – | 1 to 10 | – | – | – | – | – | – | – | 0.05 to 5 | 0.05 to 5 | 0.05 to 5 | 0.05 to 5 | 0.05 to 5 | 0.05 to 5 | 0.05 to 5 | –
20 | O=C1c2c(nc3ccccc3c2OCc2ccc(-c3ccccc3)cc2)-c2cccn21 [Compound 674b] | – | 1 to 10 | – | – | – | – | – | – | – | – | – | – | – | – | – | – | 1 to 10
